Patent publication EP0554004A2, “Cephem compounds and antibacterial agents” (KATAYAMA SEIYAKUSYO CO. Ltd., priority 1992, dated 1993)
Where two headings read alike, the source gives them in different places.

Experiments:
S. aureus Smith = experiment: MIC against standard strains (Test Example 3); assay type: cell-based; settings: Staphylococcus aureus
Experimental: (§1) By using each test strain cultured overnight at 37°C in a Muller-Hinton broth, there was prepared a bacterial solution with a bacterial cell population of 1 x 10^6 CFU/mi of the same bouillon. The bacterial solution was inoculated into the Muller-Hinton agar media each containing respectively one test agent and, after overnight incubation at 37°C, the minimum concentration that inhibited growth of the bacteria was determined and shown as MIC also in Table 1.
(§2) The minimum growth inhibitory concentration was determined for each of the 21 standard strains shown in Table 3, according to the same method as used in Test Example 1.
(§3) In the test, FMOX (flomoxef), CTM (cefotiam) and CEZ (cefazolin) were used as control agents.

S. aureus 195 = experiment: MIC against standard strains (Test Example 3); assay type: cell-based; settings: Staphylococcus aureus
Experimental: as §1, §2, §3

E. cloacae ATCC13407 = experiment: MIC against standard strains (Test Example 3); assay type: cell-based; settings: Enterobacter cloacae
Experimental: as §1, §2, §3

S. marcescens IAM1184 = experiment: MIC against standard strains (Test Example 3); assay type: cell-based; settings: Serratia marcescens
Experimental: as §1, §2, §3

A. faecalis ATCC3750 = experiment: MIC against standard strains (Test Example 3); assay type: cell-based; settings: Alcaligenes faecalis
Experimental: as §1, §2, §3

C. freundii ATCC8090 = experiment: MIC against standard strains (Test Example 3); assay type: cell-based; settings: Citrobacter freundii
Experimental: as §1, §2, §3

K. pneumoniae No. 42 = experiment: MIC against standard strains (Test Example 3); assay type: cell-based; settings: Klebsiella pneumoniae
Experimental: as §1, §2, §3

B. subtilis ATCC6633 = experiment: MIC against standard strains (Test Example 3); assay type: cell-based; settings: Bacillus subtilis
Experimental: as §1, §2, §3

K. pneumoniae IFO3317 = experiment: MIC against standard strains (Test Example 3); assay type: cell-based; settings: Klebsiella pneumoniae
Experimental: as §1, §2, §3

E. coli NIHJ JC-2 = experiment: MIC against standard strains (Test Example 3); assay type: cell-based; settings: Escherichia coli, NIHJJC2
Experimental: as §1, §2, §3

E. coli CSH2 (RK1) = experiment: MIC against standard strains (Test Example 3); assay type: cell-based; settings: Escherichia coli
Experimental: as §1, §2, §3

P. vulugaris OX-19 = experiment: MIC against standard strains (Test Example 3); assay type: cell-based
Experimental: as §1, §2, §3

S. aureus 209p JC-1 = experiment: MIC against standard strains (Test Example 3); assay type: cell-based; settings: Staphylococcus aureus
Experimental: as §1, §2, §3

P. aeruginosa NCTC10490 = experiment: MIC against standard strains (Test Example 3); assay type: cell-based; settings: Pseudomonas aeruginosa
Experimental: as §1, §2, §3

M. Morganii IFO3848 = experiment: MIC against standard strains (Test Example 3); assay type: cell-based; settings: Morganella morganii
Experimental: as §1, §2, §3

M. luteus ATCC 9341 = experiment: MIC against standard strains (Test Example 3); assay type: cell-based; settings: Micrococcus luteus, ATCC9341
Experimental: as §1, §2, §3

E. coli CSH2 (RE45) = experiment: MIC against standard strains (Test Example 3); assay type: cell-based; settings: Escherichia coli
Experimental: as §1, §2, §3

S. aureus 167 = experiment: MIC against standard strains (Test Example 3); assay type: cell-based; settings: Staphylococcus aureus
Experimental: as §1, §2, §3

A. calcoaceticos T59 = experiment: MIC against standard strains (Test Example 3); assay type: cell-based
Experimental: as §1, §2, §3

S. epidemidis IAM1296 = experiment: MIC against standard strains (Test Example 3); assay type: cell-based
Experimental: as §1, §2, §3

P. mirabilis IFO3849 = experiment: MIC against standard strains (Test Example 3); assay type: cell-based; settings: Proteus mirabilis
Experimental: as §1, §2, §3

clinically isolated MRSA = experiment: Antibacterial potency against clinically isolated MRSA (Test Example 4); assay type: cell-based, methicillin-resistant Staphylococcus aureus; settings: Staphylococcus aureus
Experimental: 52 strains of clinically isolated MRSA were used, and MIC was determined for each of the strains according to the standard method of the Japan Chemotherapical Society as in Test Example 1. The minimum growth inhibitory concentration which inhibited growth of 50% of the strains tested was expressed as MIC50 (µg/ml), and the minimum growth inhibitory concentration which inhibited growth of 90% of the strains was expressed as MIC90 (µg/ml).
MIC 50 and MIC 90 were determined for each of the 52 strains of clinically isolated MRSA according to the same method as used in Test Example 2.
VCM (vancomycin) was used as control agent.

[1] = S. aureus Smith (Test Example 3), read-out: MIC
[2] = S. aureus 195 (MRSA) (Test Example 3), read-out: MIC
[3] = E. cloacae ATCC13407 (Test Example 3), read-out: MIC
[4] = S. marcescens IAM1184 (Test Example 3), read-out: MIC
[5] = A. faecalis ATCC3750 (Test Example 3), read-out: MIC
[6] = C. freundii ATCC8090 (Test Example 3), read-out: MIC
[7] = K. pneumoniae No. 42 (Test Example 3), read-out: MIC
[8] = B. subtilis ATCC6633 (Test Example 3), read-out: MIC
[9] = K. pneumoniae IFO3317 (Test Example 3), read-out: MIC
[10] = E. coli NIHJ JC-2 (Test Example 3), read-out: MIC
[11] = P. vulugaris OX-19 (Test Example 3), read-out: MIC
[12] = S. aureus 209p JC-1 (Test Example 3), read-out: MIC
[13] = P. aeruginosa NCTC10490 (Test Example 3), read-out: MIC
[14] = M. Morganii IFO3848 (Test Example 3), read-out: MIC
[15] = M. luteus ATCC 9341 (Test Example 3), read-out: MIC
[16] = S. aureus 167 (MRSA) (Test Example 3), read-out: MIC
[17] = A. calcoaceticos T59 (Test Example 3), read-out: MIC
[18] = S. epidemidis IAM1296 (Test Example 3), read-out: MIC
[19] = P. mirabilis IFO3849 (Test Example 3), read-out: MIC
[20] = 52 strains of clinically isolated MRSA, concentration inhibiting growth of 50% of the strains (Test Example 4), read-out: MIC50
[21] = 52 strains of clinically isolated MRSA, concentration inhibiting growth of 90% of the strains (Test Example 4), read-out: MIC90

CNc1nc(-c2ccc[n+](CC3=C(C(=O)[O-])N4C(=O)[C@@H](NC(=O)/C(=N\O)c5csc(N)n5)[C@H]4SC3)c2)cs1 [Compound (10), 7β-[2-(2-aminothiazol-4-yl)-2-syn-hydroxyiminoacetamido)-3-[[3-(2-methylaminothiazol-4-yl)-1-pyridinio]methyl]-3-cephem-4-carboxylic acid chloride]
MIC (S. aureus Smith; [1]): 0.78 µg/mL
MIC (S. aureus 195; [2]): 3.13 µg/mL
MIC (E. cloacae ATCC13407; [3]): 12.5 µg/mL
MIC (S. marcescens IAM1184; [4]): 3.13 µg/mL
MIC (A. faecalis ATCC3750; [5]): 6.25 µg/mL
MIC (C. freundii ATCC8090; [6]): 1.56 µg/mL
MIC (K. pneumoniae No. 42; [7]): 6.25 µg/mL
MIC (B. subtilis ATCC6633; [8]): 0.39 µg/mL
MIC (K. pneumoniae IFO3317; [9]): 0.39 µg/mL
MIC (E. coli NIHJ JC-2; [10]): 1.56 µg/mL
MIC (E. coli CSH2 (RK1)): 3.13 µg/mL
MIC (P. vulugaris OX-19; [11]): 0.39 µg/mL
MIC (S. aureus 209p JC-1; [12]): 0.39 µg/mL
MIC (P. aeruginosa NCTC10490; [13]): 25 µg/mL
MIC (M. Morganii IFO3848; [14]): 0.2 µg/mL
MIC (M. luteus ATCC 9341; [15]): 0.1 µg/mL
MIC (E. coli CSH2 (RE45)): 1.56 µg/mL
MIC (S. aureus 167; [16]): 12.5 µg/mL
MIC (A. calcoaceticos T59; [17]): 50 µg/mL
MIC (S. epidemidis IAM1296; [18]): 0.2 µg/mL
MIC (P. mirabilis IFO3849; [19]): 3.13 µg/mL
MIC50 (clinically isolated MRSA; [20]): 4.04 µg/mL
MIC90 (clinically isolated MRSA; [21]): 8.37 µg/mL

CNC(=O)c1ccc[n+](CC2=C(C(=O)[O-])N3C(=O)[C@@H](NC(=O)/C(=N\O)c4csc(N)n4)[C@H]3SC2)c1 [Compound (6), 7β-[2-(2-aminothiazol-4-I)-2-syn-hydroxyiminoacetamido]-3-[(3-N-methylcarbamoyl)-1-pyridinio)methyl]-3-cephem-4-carboxylic acid chloride]
MIC (S. aureus Smith; [1]): 0.78 µg/mL
MIC (S. aureus 195; [2]): 3.13 µg/mL
MIC (E. cloacae ATCC13407; [3]): 1.56 µg/mL
MIC (S. marcescens IAM1184; [4]): 0.39 µg/mL
MIC (A. faecalis ATCC3750; [5]): 3.13 µg/mL
MIC (C. freundii ATCC8090; [6]): 0.39 µg/mL
MIC (K. pneumoniae No. 42; [7]): 0.78 µg/mL
MIC (B. subtilis ATCC6633; [8]): 0.78 µg/mL
MIC (K. pneumoniae IFO3317; [9]): 0.39 µg/mL
MIC (E. coli NIHJ JC-2; [10]): 0.39 µg/mL
MIC (E. coli CSH2 (RK1)): 1.56 µg/mL
MIC (P. vulugaris OX-19; [11]): 0.78 µg/mL
MIC (S. aureus 209p JC-1; [12]): 0.39 µg/mL
MIC (P. aeruginosa NCTC10490; [13]): 3.13 µg/mL
MIC (M. Morganii IFO3848; [14]): 0.2 µg/mL
MIC (M. luteus ATCC 9341; [15]): 0.1 µg/mL
MIC (E. coli CSH2 (RE45)): 0.78 µg/mL
MIC (S. aureus 167; [16]): 12.5 µg/mL
MIC (A. calcoaceticos T59; [17]): 12.5 µg/mL
MIC (S. epidemidis IAM1296; [18]): 0.2 µg/mL
MIC (P. mirabilis IFO3849; [19]): 0.39 µg/mL
MIC50 (clinically isolated MRSA; [20]): 2.15 µg/mL
MIC90 (clinically isolated MRSA; [21]): 7.18 µg/mL

NC(=O)Oc1ccc[n+](CC2=C(C(=O)[O-])N3C(=O)[C@@H](NC(=O)/C(=N\O)c4csc(N)n4)[C@H]3SC2)c1 [Compound (8), 7β-[2-(2-aminothiazol-4-yl)-2-syn-hydroxyiminoacetamido]-3-[(3-carbamoyloxy-1-pyridinio)methyl]-3-cephem-4-carboxylic acid chloride]
MIC (S. aureus Smith): 1.56 µg/mL
MIC (S. aureus 195; MRSA): 25 µg/mL
MIC (E. cloacae ATCC13407; ATCC13407): 1.56 µg/mL
MIC (S. marcescens IAM1184; IAM1184): 0.39 µg/mL
MIC (A. faecalis ATCC3750; ATCC3750): 0.78 µg/mL
MIC (C. freundii ATCC8090; ATCC8090): 0.39 µg/mL
MIC (K. pneumoniae No. 42; NO.42): 0.39 µg/mL
MIC (B. subtilis ATCC6633; ATCC6633): 0.39 µg/mL
MIC (K. pneumoniae IFO3317; IFO3317): 0.1 µg/mL
MIC (E. coli NIHJ JC-2): 0.1 µg/mL
MIC (E. coli CSH2 (RK1)): 0.39 µg/mL
MIC (P. vulugaris OX-19): 0.2 µg/mL
MIC (S. aureus 209p JC-1; 209P): 0.78 µg/mL
MIC (P. aeruginosa NCTC10490; NCTC10490): 100 µg/mL
MIC (M. Morganii IFO3848; IFO3848): 0.05 µg/mL
MIC (M. luteus ATCC 9341): 0.1 µg/mL
MIC (E. coli CSH2 (RE45)): 0.2 µg/mL
MIC (S. aureus 167; MRSA): 50 µg/mL
MIC (A. calcoaceticos T59): 25 µg/mL
MIC (S. epidemidis IAM1296): 0.39 µg/mL
MIC (P. mirabilis IFO3849; IFO3849): 0.1 µg/mL
MIC50 (clinically isolated MRSA; MRSA): 8.34 µg/mL
MIC90 (clinically isolated MRSA; MRSA): 37.9 µg/mL
